# Assay results taken from PubChem BioAssay AID328 (DTP/NCI, 2004).
# Several values for one entry are separate records, joined by “and”; a condition that tells them apart may be missing. Identical values can stand only once. Inconclusive results and toxic doses are left out.
# System: BDF1 mice, P388 leukemia ip, median survival T/C
# Assay: NCI In Vivo Anticancer Drug Screen. Data for tumor model P388 Leukemia (intraperitoneal) in B6D2F1 (BDF1) mice
# Settings: endpoint: median survival time, higher = longer survival
# Procedure, shortened: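 In tumour-bearing mice, survival after compound treatment is set against the vehicle group and given as a quotient.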
# [1] = dose: 50.0 mg/kg/injection, schedule: Q01DX009 (ip), vehicle: saline with Tween-80
# [2] = dose: 100.0 mg/kg/injection, schedule: Q01DX009 (ip), vehicle: saline with Tween-80
# [3] = dose: 100.0 mg/kg/injection, schedule: Q04DX003 (ip), vehicle: saline with Tween-80
# [4] = dose: 200.0 mg/kg/injection, schedule: Q01DX009 (ip), vehicle: saline with Tween-80
# [5] = dose: 200.0 mg/kg/injection, schedule: Q04DX003 (ip), vehicle: saline with Tween-80
# [6] = dose: 400.0 mg/kg/injection, schedule: Q01DX009 (ip), vehicle: saline with Tween-80
# [7] = dose: 400.0 mg/kg/injection, schedule: Q04DX003 (ip), vehicle: saline with Tween-80
# [8] = dose: 25.0 mg/kg/injection, schedule: Q01DX009 (ip), vehicle: saline
# [9] = dose: 50.0 mg/kg/injection, schedule: Q01DX009 (ip), vehicle: saline
# [10] = dose: 50.0 mg/kg/injection, schedule: Q04DX003 (ip), vehicle: saline
# [11] = dose: 100.0 mg/kg/injection, schedule: Q04DX003 (ip), vehicle: saline
# [12] = dose: 12.5 mg/kg/injection, schedule: Q01DX009 (ip), vehicle: saline with Tween-80
# [13] = dose: 25.0 mg/kg/injection, schedule: Q01DX009 (ip), vehicle: saline with Tween-80
# [14] = dose: 12.5 mg/kg/injection, schedule: Q01DX009 (ip), vehicle: Klucel (hydroxypropylcellulose) (HPC)
# [15] = dose: 25.0 mg/kg/injection, schedule: Q01DX009 (ip), vehicle: Klucel (hydroxypropylcellulose) (HPC)
# [16] = dose: 100.0 mg/kg/injection, schedule: Q04DX003 (ip), vehicle: Klucel (hydroxypropylcellulose) (HPC)
# [17] = dose: 200.0 mg/kg/injection, schedule: Q04DX003 (ip), vehicle: Klucel (hydroxypropylcellulose) (HPC)
compound,measurement,setting,value
COC(C(=O)C(O)C(C)O)C1CC2C=C3C=C(OC4CC(OC5CC(O)C(OC)C(C)O5)C(OC(C)=O)C(C)O4)C(C)C(=O)C3=C(O)C2=C(O)C1OC1CC(OC2CC(OC3CC(C)(O)C(OC(=O)C(C)C)C(C)O3)C(O)C(C)O2)C(O)C(C)O1 (stereo not drawn),T/C,"dose: 0.12 mg/kg/injection, schedule: Q01DX001 (ip), vehicle: other",150 % of control
same,T/C,"dose: 0.25 mg/kg/injection, schedule: Q01DX001 (ip), vehicle: other",204 % of control
same,T/C,"dose: 12.5 micrograms/kg/injection, schedule: Q01DX009 (ip), vehicle: saline",111 % of control
same,T/C,"dose: 25.0 micrograms/kg/injection, schedule: Q01DX009 (ip), vehicle: saline",111 % of control
same,T/C,"dose: 31.2 micrograms/kg/injection, schedule: Q01DX001 (ip), vehicle: saline",165 % of control
same,T/C,"dose: 31.2 micrograms/kg/injection, schedule: Q04DX003 (ip), vehicle: saline",190 % of control
same,T/C,"dose: 31.2 micrograms/kg/injection, schedule: Q08DX002 (ip), vehicle: saline",190 % of control
same,T/C,"dose: 50.0 micrograms/kg/injection, schedule: Q01DX009 (ip), vehicle: saline",111 % of control
same,T/C,"dose: 62.5 micrograms/kg/injection, schedule: Q01DX001 (ip), vehicle: saline",150 % of control and 195 % of control
same,T/C,"dose: 62.5 micrograms/kg/injection, schedule: Q08DX002 (ip), vehicle: saline",210 % of control
same,T/C,"dose: 100.0 micrograms/kg/injection, schedule: Q01DX009 (ip), vehicle: saline",111 % of control
same,T/C,"dose: 125.0 micrograms/kg/injection, schedule: Q01DX001 (ip), vehicle: saline",230 % of control
same,T/C,"dose: 125.0 micrograms/kg/injection, schedule: Q08DX002 (ip), vehicle: saline",185 % of control
same,T/C,"dose: 250.0 micrograms/kg/injection, schedule: Q01DX001 (ip), vehicle: saline",240 % of control and 150 % of control
same,T/C,"dose: 500.0 micrograms/kg/injection, schedule: Q01DX001 (ip), vehicle: saline",108 % of control
same,T/C,"dose: 500.0 micrograms/kg/injection, schedule: Q08DX002 (ip), vehicle: saline",100 % of control
O=c1[nH]cnc2c(Cl)c(C(Cl)(Cl)Cl)nn12 (tested in a mixture with another compound),T/C,[1],99 % of control
same,T/C,[2],90 % of control and 103 % of control
same,T/C,[3],111 % of control
same,T/C,[4],99 % of control and 114 % of control
same,T/C,[5],104 % of control
same,T/C,[6],93 % of control and 112 % of control
same,T/C,[7],102 % of control
O=Cc1cc([N+](=O)[O-])ccc1Cl,T/C,"dose: 50.0 mg/kg/injection, schedule: Q04DX003 (ip), vehicle: saline with Tween-80",100 % of control
same,T/C,[3],96 % of control
same,T/C,[5],100 % of control
COc1cccc(NN)c1,T/C,[8],113 % of control
same,T/C,[9],104 % of control
same,T/C,[10],100 % of control
same,T/C,[11],91 % of control
C=C(Cl)COC1CCS(=O)(=O)C1 (stereo not drawn),T/C,"dose: 6.25 mg/kg/injection, schedule: Q01DX009 (ip), vehicle: saline with Tween-80",90 % of control
same,T/C,[12],90 % of control
same,T/C,[13],93 % of control
FC(F)(F)c1nnn[n-]1.[Au+].c1ccc([PH+](c2ccccc2)c2ccccc2)cc1,T/C,"dose: 25.0 mg/kg/injection, schedule: Q01DX001 (ip), vehicle: saline with Tween-80",100 % of control
same,T/C,"dose: 50.0 mg/kg/injection, schedule: Q01DX001 (ip), vehicle: saline with Tween-80",102 % of control
CCS(=O)(=O)CCN1C(=O)CN=C(c2ccccc2F)c2cc(Cl)ccc21,T/C,[12],114 % of control
same,T/C,[13],96 % of control
same,T/C,[1],103 % of control and 123 % of control
same,T/C,[2],90 % of control and 107 % of control
NC1C=CC(CCC(N)C(=O)O)C=C1 (stereo not drawn),T/C,"dose: 12.5 mg/kg/injection, schedule: Q01DX009 (ip), vehicle: saline",100 % of control
same,T/C,[8],100 % of control and 105 % of control
same,T/C,[9],100 % of control
same,T/C,"dose: 100.0 mg/kg/injection, schedule: Q01DX009 (ip), vehicle: saline",110 % of control
CC(=O)O.[Pb],T/C,[14],109 % of control
same,T/C,[15],109 % of control
same,T/C,[13],90 % of control
same,T/C,[1],90 % of control
O=C(NC(=O)c1c(F)cccc1F)Nc1nc2ccccc2s1,T/C,[13],93 % of control
same,T/C,[2],93 % of control
CCc1c2cc(OC)c(OC)cc2cc2c3cc(OC)c(OC)cc3cc[n+]12 (tested in a mixture with another compound),T/C,[10],150 % of control
same,T/C,"dose: 75.0 mg/kg/injection, schedule: Q04DX003 (ip), vehicle: saline",150 % of control
same,T/C,[11],166 % of control
same,T/C,"dose: 150.0 mg/kg/injection, schedule: Q04DX003 (ip), vehicle: saline",158 % of control
CCOC(=O)C(C)(C)CCl,T/C,[16],90 % of control
same,T/C,[17],90 % of control
same,T/C,"dose: 400.0 mg/kg/injection, schedule: Q04DX003 (ip), vehicle: Klucel (hydroxypropylcellulose) (HPC)",100 % of control
CC/C(=N/O)c1ccccc1,T/C,[3],90 % of control
same,T/C,[5],110 % of control
same,T/C,[7],105 % of control
CCCCCCCCCCCCCCCCOCCCCCCCCCCCCCCCC,T/C,"dose: 100.0 mg/kg/injection, schedule: Q01DX009 (ip), vehicle: other",86 % of control
same,T/C,"dose: 100.0 mg/kg/injection, schedule: Q04DX003 (ip), vehicle: other",91 % of control
same,T/C,"dose: 200.0 mg/kg/injection, schedule: Q01DX009 (ip), vehicle: other",86 % of control
same,T/C,"dose: 200.0 mg/kg/injection, schedule: Q04DX003 (ip), vehicle: other",91 % of control
CC(C)=CCC/C(C)=C/CO,T/C,"dose: 15.6 mg/kg/injection, schedule: Q01DX010 (ip), vehicle: saline",100 % of control
same,T/C,"dose: 31.3 mg/kg/injection, schedule: Q01DX010 (ip), vehicle: saline",100 % of control
same,T/C,"dose: 62.5 mg/kg/injection, schedule: Q01DX010 (ip), vehicle: saline",113 % of control
same,T/C,"dose: 125.0 mg/kg/injection, schedule: Q01DX010 (ip), vehicle: saline",118 % of control
O=C(O)CC(SC(CC(=O)O)C(F)(F)C(F)(F)C(F)(F)F)C(F)(F)C(F)(F)C(F)(F)F (stereo not drawn),T/C,[13],100 % of control
same,T/C,[1],110 % of control
same,T/C,[2],110 % of control
CCNc1c([N+](=O)[O-])cc(S(=O)(=O)O)cc1[N+](=O)[O-],T/C,"dose: 50.0 mg/kg/injection, schedule: Q04DX003 (ip), vehicle: saline sonified",100 % of control
same,T/C,"dose: 100.0 mg/kg/injection, schedule: Q04DX003 (ip), vehicle: saline sonified",104 % of control
same,T/C,"dose: 200.0 mg/kg/injection, schedule: Q04DX003 (ip), vehicle: saline sonified",104 % of control
N=Cc1c(O)n(-c2ccccc2)c(=O)[nH]c1=O,T/C,[2],112 % of control
same,T/C,[4],100 % of control
same,T/C,[6],104 % of control
Cc1nnc2n1N=C(c1ccc(O)c(O)c1O)CS2,T/C,[1],94 % of control
same,T/C,[2],93 % of control
same,T/C,[4],107 % of control
Cc1ccc(NC(=O)c2ccccc2C(=O)O)cc1C,T/C,[3],118 % of control
same,T/C,[5],100 % of control
same,T/C,[7],118 % of control
O=[N+]([O-])c1ccc(N2CCCC(n3cccc3)C2)c([N+](=O)[O-])c1 (stereo not drawn),T/C,[1],109 % of control
same,T/C,[2],115 % of control
CCN(C(=O)Nc1ccccc1)c1ccccc1,T/C,"dose: 100.0 mg/kg/injection, schedule: Q01DX001 (ip), vehicle: saline with Tween-80",104 % of control
same,T/C,"dose: 200.0 mg/kg/injection, schedule: Q01DX001 (ip), vehicle: saline with Tween-80",90 % of control
same,T/C,"dose: 400.0 mg/kg/injection, schedule: Q01DX001 (ip), vehicle: saline with Tween-80",95 % of control
Nc1nc(=S)c2[nH]c(N=Nc3ccc(S(=O)(=O)Nc4ccccn4)cc3)nc2[nH]1,T/C,[14],108 % of control
same,T/C,[15],91 % of control
same,T/C,"dose: 50.0 mg/kg/injection, schedule: Q01DX009 (ip), vehicle: Klucel (hydroxypropylcellulose) (HPC)",90 % of control
same,T/C,"dose: 50.0 mg/kg/injection, schedule: Q04DX003 (ip), vehicle: Klucel (hydroxypropylcellulose) (HPC)",87 % of control
same,T/C,[16],116 % of control
same,T/C,[17],104 % of control
